Laboratory results: ChEMBL document CHEMBL1275392, “Assessment of chemoselective neoglycosylation methods using chlorambucil as a model” (2010)

Key:
Format in all cases: functional
MDA-MB-468 [1] = experiment: Growth inhibition of human MDA-MB-468 cells at 10 uM after 7 days by celltiter-glo assay; details: MDA-MB-468, 168 h, read-out: GI
T47D = experiment: Growth inhibition of human T47D cells at 10 uM after 7 days by celltiter-glo assay; details: 168 h, read-out: GI
OVCAR-5 = experiment: Growth inhibition of human OVCAR5 cells at 10 uM after 7 days by celltiter-glo assay; details: OVCAR-5, 168 h, read-out: GI
OVCAR-3 = experiment: Growth inhibition of human OVCAR-3 cells at 10 uM after 7 days by celltiter-glo assay; details: OVCAR-3, 168 h, read-out: GI
SK-MEL-28 = experiment: Growth inhibition of human SK-MEL-28 cells at 10 uM after 7 days by celltiter-glo assay; details: SK-MEL-28, 168 h, read-out: GI
SW-620 [2] = experiment: Growth inhibition of human SW620 cells at 10 uM after 7 days by celltiter-glo assay; details: SW-620, 168 h, read-out: GI
HCT-116 = experiment: Growth inhibition of human HCT116 cells at 10 uM after 7 days by celltiter-glo assay; details: HCT-116, 168 h, read-out: GI
NCI-H226 = experiment: Growth inhibition of human NCI-H226 cells at 10 uM after 7 days by celltiter-glo assay; details: NCI-H226, 168 h, read-out: GI
SR = experiment: Growth inhibition of human SR cells at 10 uM after 7 days by celltiter-glo assay; details: 168 h, read-out: GI
MOLT-4 = experiment: Growth inhibition of human MOLT4 cells at 10 uM after 7 days by celltiter-glo assay; details: MOLT-4, 168 h, read-out: GI
CCRF-CEM = experiment: Growth inhibition of human CCRF-CEM cells at 10 uM after 7 days by celltiter-glo assay; details: 168 h, read-out: GI
IGROV-1 = experiment: Growth inhibition of human IGROV1 cells after 7 days by celltiter-glo assay; details: IGROV-1, 168 h
786-0 = experiment: Growth inhibition of human 786-0 cells after 7 days by celltiter-glo assay; details: 786-0, 168 h
MCF7 = experiment: Growth inhibition of human MCF7 cells after 7 days by celltiter-glo assay; details: MCF7, 168 h
[3] = Growth inhibition of human Hs 578T cells after 7 days by celltiter-glo assay; details: 168 h
BT-549 = experiment: Growth inhibition of human BT549 cells after 7 days by celltiter-glo assay; details: BT-549, 168 h
MDA-MB-468 [4] = experiment: Growth inhibition of human MDA-MB-468 cells after 7 days by celltiter-glo assay; details: MDA-MB-468, 168 h
HT-29 [5] = experiment: Ratio of compound GI50 to chlorambucil GI50 for human HT-29 cells
HCT-15 = experiment: Ratio of compound GI50 to chlorambucil GI50 for human HCT15 cells
MDA-MB-435 = experiment: Growth inhibition of human MDA-MB-435 cells after 7 days by celltiter-glo assay; details: MDA-MB-435, 168 h
LOX IMVI = experiment: Growth inhibition of human LOXIMVI cells after 7 days by celltiter-glo assay; details: 168 h
PC-3 = experiment: Growth inhibition of human PC3 cells after 7 days by celltiter-glo assay; details: PC-3, 168 h
SNB-19 = experiment: Growth inhibition of human SNB19 cells after 7 days by celltiter-glo assay; details: SNB-19, 168 h
SW-620 [6] = experiment: Growth inhibition of human SW620 cells after 7 days by celltiter-glo assay; details: SW-620, 168 h
HT-29 [7] = experiment: Growth inhibition of human HT-29 cells after 7 days by celltiter-glo assay; details: HT-29, 168 h
COLO 205 = experiment: Growth inhibition of human COLO205 cells after 7 days by celltiter-glo assay; details: COLO 205, 168 h
EKVX = experiment: Growth inhibition of human EKVX cells after 7 days by celltiter-glo assay; details: 168 h

Q: For `CON(CCCc1ccc(N(CCCl)CCCl)cc1)C1OC[C@@H](O)[C@@H]1O` (some centres not stated), which inhibition of growth at 10 µM (MDA-MB-468 [1]) is on record?
A: 43.9%

Q: What about the inhibition of growth at 10 µM (T47D) of the same compound?
A: 48%

Q: What about the inhibition of growth at 10 µM (OVCAR-5) of the same compound?
A: 111%

Q: What about the inhibition of growth at 10 µM (OVCAR-3) of the same compound?
A: 85.3%

Q: What about the inhibition of growth at 10 µM (SK-MEL-28) of the same compound?
A: 117%

Q: And the inhibition of growth at 10 µM (SW-620 [2])?
A: 68.1%

Q: What about the inhibition of growth at 10 µM (HCT-116) of the same compound?
A: 69.4%

Q: And the inhibition of growth at 10 µM (NCI-H226)?
A: 84.2%

Q: And the inhibition of growth at 10 µM (SR)?
A: 48.7%

Q: And the inhibition of growth at 10 µM (MOLT-4)?
A: 64.4%

Q: And the inhibition of growth at 10 µM (CCRF-CEM)?
A: 21.2%

Q: What about the GI50 (IGROV-1) of the same compound?
A: 1.21 µM

Q: What about the GI50 (786-0) of the same compound?
A: 6.16 µM

Q: What about the GI50 (MCF7) of the same compound?
A: 1.8 µM

Q: And the GI50 [3]?
A: 24.7 µM

Q: What about the GI50 (BT-549) of the same compound?
A: 13.4 µM

Q: And the GI50 (MDA-MB-468 [4])?
A: 7.25 µM

Q: What about the RatioGI50 (HT-29 [5]) of the same compound?
A: 12

Q: And the RatioGI50 (HCT-15)?
A: 15

Q: What about the GI50 (MDA-MB-435) of the same compound?
A: 21.1 µM

Q: And the GI50 (LOX IMVI)?
A: 8.61 µM

Q: What about the GI50 (PC-3) of the same compound?
A: 11.7 µM

Q: And the GI50 (SNB-19)?
A: 33.4 µM

Q: What about the GI50 (SW-620 [6]) of the same compound?
A: 12.4 µM

Q: And the GI50 (HT-29 [7])?
A: 0.41 µM

Q: And the GI50 (COLO 205)?
A: 12.7 µM

Q: What about the GI50 (EKVX) of the same compound?
A: 37.9 µM
